According to ChEMBL document CHEMBL1201862, “PubChem BioAssay data set” (2004):
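Values below derive from 48-hour exposures of cells grown in 96-well plates, with endpoints linearly interpolated between the two concentrations bracketing the appropriate inhibition level. GI50 = concentration required for 50% inhibition of growth.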 Active and inactive are the calls of the source. No stated cut-off is given here; in the data, active = GI50 up to about 1.1 µM and inactive = higher.

Key:
Test in all cases: DTP human tumour cell line panel, 48 h
MCF7 = tested on: MCF7
UO-31 = tested on: UO-31
A498 = tested on: A498
PC-3 = tested on: PC-3
IGROV-1 = tested on: IGROV-1
SF-539 = tested on: SF-539
K562 = tested on: K562
MDA-MB-231 = tested on: MDA-MB-231
HT-29 = tested on: HT-29
Malme-3M = tested on: Malme-3M
MDA-N = tested on: MDA-N
HOP-92 = tested on: HOP-92
SW-620 = tested on: SW-620
NCI-H226 = tested on: NCI-H226
SR = tested on: SR
SK-MEL-2 = tested on: SK-MEL-2
HOP-62 = tested on: HOP-62
M14 = tested on: M14
CCRF-CEM = tested on: CCRF-CEM
SNB-78 = tested on: SNB-78

Measured: GI50

O=C1c2cccc([N+](=O)[O-])c2C(=O)N1c1ncn[nH]1
inactive: MCF7 > 100 µM | UO-31 > 100 µM | A498 53 µM | PC-3 > 100 µM | IGROV-1 > 100 µM | K562 > 100 µM | MDA-MB-231 56.6 µM | HT-29 > 100 µM | Malme-3M > 100 µM | MDA-N > 100 µM | HOP-92 21.4 µM | SW-620 > 100 µM | NCI-H226 81.8 µM | SR > 100 µM | SK-MEL-2 41.2 µM | HOP-62 38.9 µM | M14 > 100 µM | CCRF-CEM > 100 µM
active: SF-539 0.822 µM

N=C(N)N/N=C/c1c(-c2ccc([N+](=O)[O-])cc2)nc2sc(Cl)cn12
inactive: IGROV-1 1.78 µM | SF-539 1.89 µM | HT-29 1.18 µM | Malme-3M 1.47 µM | HOP-92 1.73 µM | NCI-H226 1.76 µM | M14 1.37 µM
active: MCF7 0.52 µM | UO-31 0.979 µM | A498 0.873 µM | PC-3 1.12 µM | K562 0.239 µM | MDA-MB-231 0.262 µM | MDA-N 0.54 µM | SW-620 0.226 µM | SR 0.0731 µM | SK-MEL-2 0.513 µM | HOP-62 0.635 µM | CCRF-CEM 0.277 µM

CC(C)(C)C1CCC2c3c([nH]c4ccccc34)C3C(=O)N(c4ccc(Br)cc4)C(=O)C3C2C1 (stereo not drawn)
inactive: UO-31 14.2 µM | A498 28.6 µM | IGROV-1 21.1 µM | SNB-78 26.4 µM | SF-539 21.1 µM | K562 15.7 µM | HT-29 17.3 µM | Malme-3M 33.9 µM | HOP-92 24.3 µM | SW-620 19.8 µM | NCI-H226 18.7 µM | SK-MEL-2 19 µM | HOP-62 21.6 µM | M14 26.1 µM | CCRF-CEM 16.7 µM

Cc1cc(S(=O)(=O)Nc2nnc3c4ccccc4cnn23)c(S)cc1Cl
inactive: MCF7 > 67.3 µM | UO-31 > 91.2 µM | A498 > 85.1 µM | PC-3 > 100 µM | IGROV-1 39.2 µM | SF-539 > 56.9 µM | K562 > 100 µM | MDA-MB-231 > 93.3 µM | HT-29 > 100 µM | Malme-3M > 100 µM | MDA-N > 100 µM | HOP-92 > 49.9 µM | SW-620 > 100 µM | NCI-H226 24.1 µM | SR > 100 µM | SK-MEL-2 31.6 µM | HOP-62 52.8 µM | M14 > 100 µM | CCRF-CEM > 100 µM

CC1=NN(C(=O)c2ccncc2)C(=O)C1/N=N/c1ccc2ccccc2c1 (stereo not drawn)
inactive: MCF7 5.32 µM | UO-31 > 100 µM | A498 > 100 µM | PC-3 > 100 µM | IGROV-1 22.9 µM | SF-539 > 96.8 µM | K562 5.46 µM | MDA-MB-231 20.8 µM | HT-29 11.7 µM | Malme-3M > 72.6 µM | MDA-N 2.94 µM | HOP-92 > 100 µM | SW-620 38.7 µM | NCI-H226 > 100 µM | SR 5.3 µM | SK-MEL-2 14.7 µM | HOP-62 > 100 µM | M14 12.2 µM | CCRF-CEM 64.6 µM

C#CCN(N=O)C(=O)NCCCCC(NC(=O)OCc1ccccc1)C(=O)OCc1ccccc1 (stereo not drawn)
inactive: UO-31 > 100 µM | A498 > 100 µM | IGROV-1 76 µM | SNB-78 46.2 µM | SF-539 16.3 µM | K562 23.3 µM | HT-29 62.4 µM | Malme-3M 29.9 µM | HOP-92 20.3 µM | SW-620 17.4 µM | NCI-H226 > 100 µM | SK-MEL-2 40 µM | HOP-62 > 100 µM | M14 27 µM | CCRF-CEM 19.3 µM

Cc1cc(NS(=O)(=O)c2ccc(NC(=O)c3cccc4c(N)c5ccccc5nc34)cc2)no1
inactive: UO-31 33.3 µM | A498 19.4 µM | IGROV-1 27.5 µM | SNB-78 27.5 µM | SF-539 21.1 µM | K562 31.2 µM | HT-29 27.9 µM | Malme-3M 30.9 µM | SW-620 30 µM | NCI-H226 17.7 µM | SK-MEL-2 18.7 µM | HOP-62 29.6 µM | M14 27.5 µM | CCRF-CEM 21.4 µM

CC1OC(n2cc(Cl)c(=O)[nH]c2=O)C=C(OC(=O)c2ccccc2)C1=O (stereo not drawn)
inactive: UO-31 > 100 µM | IGROV-1 > 100 µM | SNB-78 > 100 µM | SF-539 > 100 µM | K562 > 100 µM | HT-29 > 100 µM | Malme-3M > 100 µM | HOP-92 > 100 µM | SW-620 > 100 µM | SK-MEL-2 > 100 µM | HOP-62 > 100 µM | M14 > 100 µM | CCRF-CEM > 100 µM

Cc1noc2cccc(O)c12
inactive: UO-31 > 100 µM | A498 > 100 µM | IGROV-1 > 100 µM | SNB-78 > 100 µM | SF-539 > 100 µM | K562 > 100 µM | HT-29 > 100 µM | Malme-3M > 100 µM | HOP-92 > 100 µM | SW-620 > 100 µM | NCI-H226 > 100 µM | SK-MEL-2 > 100 µM | HOP-62 > 100 µM | M14 > 100 µM | CCRF-CEM > 100 µM

CN(C)CC1CN(C(=O)Nc2ccccc2)C(=N)O1 (stereo not drawn)
inactive: MCF7 > 100 µM | UO-31 > 100 µM | A498 > 100 µM | PC-3 > 100 µM | IGROV-1 > 100 µM | SF-539 > 100 µM | K562 > 100 µM | MDA-MB-231 > 100 µM | HT-29 > 100 µM | Malme-3M > 100 µM | MDA-N 83.2 µM | HOP-92 > 100 µM | SW-620 > 100 µM | NCI-H226 > 100 µM | SR > 100 µM | SK-MEL-2 > 100 µM | HOP-62 > 100 µM | M14 > 100 µM | CCRF-CEM > 100 µM

COc1nc(=O)cc(N)n1C1OC(CO)C(O)C1O (stereo not drawn)
inactive: UO-31 > 100 µM | A498 > 100 µM | IGROV-1 > 100 µM | SNB-78 > 100 µM | SF-539 > 100 µM | K562 > 100 µM | HT-29 > 100 µM | Malme-3M > 100 µM | SW-620 > 100 µM | NCI-H226 > 100 µM | SK-MEL-2 > 100 µM | HOP-62 > 100 µM | M14 > 100 µM | CCRF-CEM > 100 µM

O=C(NC(Cc1c[nH]c2ccccc12)C(=O)O)/C(=C/c1ccccc1)NC(=O)c1ccccc1 (stereo not drawn)
inactive: MCF7 50 µM | UO-31 53.2 µM | A498 > 81.8 µM | PC-3 50.5 µM | IGROV-1 32.1 µM | SF-539 49.4 µM | K562 59.7 µM | MDA-MB-231 > 44.6 µM | HT-29 66.7 µM | Malme-3M 22.5 µM | MDA-N 82.4 µM | HOP-92 23.9 µM | SW-620 > 100 µM | NCI-H226 > 100 µM | SR > 100 µM | SK-MEL-2 57.5 µM | HOP-62 41.3 µM | M14 46 µM | CCRF-CEM > 66.4 µM

C=C(c1ccccc1N)[C@@]1(O)C[C@H](/C(=C\C)CO)C[C@@H]1NCc1ccccc1
inactive: UO-31 17.4 µM | A498 82.6 µM | IGROV-1 31.9 µM | SNB-78 25.2 µM | SF-539 16.3 µM | K562 18.6 µM | HT-29 17.5 µM | Malme-3M 13.4 µM | HOP-92 3.78 µM | SW-620 21.7 µM | NCI-H226 15 µM | SK-MEL-2 22.2 µM | HOP-62 32.7 µM | M14 15.2 µM | CCRF-CEM 21.2 µM

Cc1ccccc1NC(=O)C(=O)C(C#N)c1ccc(Cl)cc1 (stereo not drawn)
inactive: UO-31 57.7 µM | A498 > 100 µM | IGROV-1 63.7 µM | SNB-78 > 100 µM | SF-539 30.4 µM | K562 29.1 µM | HT-29 28.8 µM | Malme-3M > 100 µM | HOP-92 45.8 µM | SW-620 15.4 µM | NCI-H226 78.5 µM | SK-MEL-2 56.5 µM | HOP-62 > 100 µM | M14 45.9 µM | CCRF-CEM 64 µM

c1ccc2c(c1)c1ccccc1c1n[se]nc21
inactive: UO-31 33.1 µM | A498 19.5 µM | IGROV-1 36.1 µM | SNB-78 > 100 µM | SF-539 34.6 µM | K562 > 100 µM | HT-29 57 µM | Malme-3M > 100 µM | SW-620 > 100 µM | SK-MEL-2 > 100 µM | M14 > 100 µM | CCRF-CEM > 100 µM

NNC(=O)/C(=C/c1ccc(Cl)c(Cl)c1)NC(=O)c1ccccc1
inactive: UO-31 > 100 µM | IGROV-1 > 100 µM | SNB-78 > 100 µM | HT-29 > 100 µM | Malme-3M > 100 µM | HOP-92 40.5 µM | SW-620 > 100 µM | NCI-H226 > 100 µM | SK-MEL-2 > 100 µM | HOP-62 > 100 µM | M14 > 100 µM | CCRF-CEM 92.5 µM

C[C@H](CCC(=O)NCCS(=O)(=O)O)[C@H]1CC[C@H]2[C@@H]3CC[C@@H]4C[C@H](O)CC[C@]4(C)[C@H]3CC[C@]12C
inactive: MCF7 > 100 µM | UO-31 > 100 µM | A498 > 100 µM | PC-3 > 100 µM | IGROV-1 > 100 µM | SF-539 > 100 µM | K562 > 100 µM | MDA-MB-231 > 100 µM | HT-29 > 100 µM | Malme-3M > 100 µM | MDA-N > 100 µM | HOP-92 > 100 µM | SW-620 > 100 µM | NCI-H226 > 100 µM | SR 28.7 µM | SK-MEL-2 > 100 µM | HOP-62 > 100 µM | M14 > 100 µM | CCRF-CEM > 100 µM
